Experimental data: ChEMBL document CHEMBL1909294, “Translating clinical findings into knowledge in drug safety evaluation--drug induced liver injury prediction system (DILIps)” (PLoS Comput Biol, 2011)

Experiments:
Hepatotoxicity [1] = system: Hepatotoxicity;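 for HepSE Combined Scores: combined hepatic side effect score as listed in the training data of the Drug Induced Liver Injury Prediction System (DILIps)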;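 for HepSE cholecystitis: Cholecystitis-related hepatic side effect score drawn from the DILIps (drug-induced liver injury prediction) training data set; call rule not given here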; for HepSE hepatic failure: call rule not given here;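 for HepSE hepatic necrosis: score of hepatic side effects for hepatic necrosis, drawn from the training data of DILIps, a prediction system for drug-induced liver injury; call rule not given here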;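 for HepSE hepatomegaly: hepatic side effect score for hepatomegaly, taken from the training set of the DILIps drug-induced liver injury prediction system; call rule not given here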;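 for HepSE jaundice: Jaundice-related hepatic side-effect score drawn from the training data of the DILIps (drug-induced liver injury prediction system); call rule not given here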;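 for HepSE liver fatty: hepatic side effect score for fatty liver, taken from the DILIps training set for predicting drug-induced liver injury; call rule not given here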
Hepatotoxicity [2] = system: Hepatotoxicity; remark: listed apart in the source;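 for HepSE Combined Scores: combined hepatic side effect score as listed in the training data of the Drug Induced Liver Injury Prediction System (DILIps)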; for HepSE hepatic failure: call rule not given here;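 for HepSE hepatic necrosis: score of hepatic side effects for hepatic necrosis, drawn from the training data of DILIps, a prediction system for drug-induced liver injury; call rule not given here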;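 for HepSE hepatomegaly: hepatic side effect score for hepatomegaly, taken from the training set of the DILIps drug-induced liver injury prediction system; call rule not given here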;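 for HepSE jaundice: Jaundice-related hepatic side-effect score drawn from the training data of the DILIps (drug-induced liver injury prediction system); call rule not given here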;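 for HepSE liver fatty: hepatic side effect score for fatty liver, taken from the DILIps training set for predicting drug-induced liver injury; call rule not given here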
Hepatotoxicity [3] = system: Hepatotoxicity; remark: listed apart in the source;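 for HepSE Combined Scores: combined hepatic side effect score as listed in the training data of the Drug Induced Liver Injury Prediction System (DILIps)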; for HepSE hepatic failure: call rule not given here;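 for HepSE hepatic necrosis: score of hepatic side effects for hepatic necrosis, drawn from the training data of DILIps, a prediction system for drug-induced liver injury; call rule not given here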;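 for HepSE hepatomegaly: hepatic side effect score for hepatomegaly, taken from the training set of the DILIps drug-induced liver injury prediction system; call rule not given here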;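 for HepSE jaundice: Jaundice-related hepatic side-effect score drawn from the training data of the DILIps (drug-induced liver injury prediction system); call rule not given here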;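 for HepSE liver fatty: hepatic side effect score for fatty liver, taken from the DILIps training set for predicting drug-induced liver injury; call rule not given here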
Hepatotoxicity [4] = system: Hepatotoxicity; remark: listed apart in the source;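 for HepSE Combined Scores: combined hepatic side effect score as listed in the training data of the Drug Induced Liver Injury Prediction System (DILIps)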; for HepSE hepatic failure: call rule not given here;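 for HepSE hepatic necrosis: score of hepatic side effects for hepatic necrosis, drawn from the training data of DILIps, a prediction system for drug-induced liver injury; call rule not given here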;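 for HepSE hepatomegaly: hepatic side effect score for hepatomegaly, taken from the training set of the DILIps drug-induced liver injury prediction system; call rule not given here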;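 for HepSE jaundice: Jaundice-related hepatic side-effect score drawn from the training data of the DILIps (drug-induced liver injury prediction system); call rule not given here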;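 for HepSE liver fatty: hepatic side effect score for fatty liver, taken from the DILIps training set for predicting drug-induced liver injury; call rule not given here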
Hepatotoxicity [5] = system: Hepatotoxicity; remark: listed apart in the source; for HepSE hepatic failure: call rule not given here
Hepatotoxicity [6] = system: Hepatotoxicity; remark: listed apart in the source; for HepSE hepatic failure: call rule not given here
Hepatotoxicity [7] = system: Hepatotoxicity; remark: listed apart in the source
Hepatotoxicity [8] = system: Hepatotoxicity; remark: listed apart in the source
Hepatotoxicity [9] = system: Hepatotoxicity; remark: listed apart in the source
Hepatotoxicity [10] = system: Hepatotoxicity; remark: listed apart in the source
Hepatotoxicity [11] = system: Hepatotoxicity; remark: listed apart in the source
Hepatotoxicity [12] = system: Hepatotoxicity; remark: listed apart in the source
Hepatotoxicity [13] = system: Hepatotoxicity; remark: listed apart in the source
Hepatotoxicity [14] = system: Hepatotoxicity; remark: listed apart in the source

Row | Structure (SMILES) | HepSE_hepatic necrosis (Hepatotoxicity [1]) | HepSE_hepatic failure (Hepatotoxicity [2]) | HepSE_Combined Scores (Hepatotoxicity [3]) | HepSE_liver fatty (Hepatotoxicity [4]) | HepSE_hepatomegaly (Hepatotoxicity [5]) | HepSE_jaundice (Hepatotoxicity [6]) | HepSE_hepatitis (Hepatotoxicity [7]) | HepSE_cholecystitis (Hepatotoxicity [8]) | HepSE_cholelithiasis (Hepatotoxicity [9]) | HepSE_liver disease (Hepatotoxicity [10]) | HepSE_cirrhosis (Hepatotoxicity [11]) | HepSE_elevated liver function tests (Hepatotoxicity [12]) | HepSE_bilirubinemia (Hepatotoxicity [13]) | HepSE_liver function tests abnormal (Hepatotoxicity [14]) | further results
1 | O=C(O)c1ccc(-n2nc(-c3ccccc3O)nc2-c2ccccc2O)cc1 [DEFERASIROX] | 0 | 1 | 5 | 0 | 0 | 0 | 1 | 0 | 1 | 0 | 1 | 0 | 0 | 1 | 
2 | CC(=O)N(O)CCCCCNC(=O)CCC(=O)N(O)CCCCCNC(=O)CCC(=O)N(O)CCCCCN [DEFEROXAMINE] | 0 | 0 | 0 | 0 | 0 | 0 | 0 | 0 | 0 | 0 | 0 | 0 | 0 | 0 | 
3 | CC(C)Nc1cccnc1N1CCN(C(=O)c2cc3cc(NS(C)(=O)=O)ccc3[nH]2)CC1 [DELAVIRDINE] | 0 | 1 | 5 | 0 | 1 | 1 | 1 | 0 | 0 | 0 | 0 | 0 | 1 | 0 | 
4 | CN(C)[C@@H]1C(O)=C(C(N)=O)C(=O)[C@@]2(O)C(O)=C3C(=O)c4c(O)ccc(Cl)c4[C@@H](O)[C@H]3C[C@@H]12 [DEMECLOCYCLINE] | 0 | 1 | 2 | 0 | 0 | 0 | 1 | 0 | 0 | 0 | 0 | 0 | 0 | 0 | 
5 | CNCCCN1c2ccccc2CCc2ccccc21 [DESIPRAMINE] |  |  |  |  |  |  |  |  |  |  |  |  |  |  | HepSE_hepatic necrosis (Hepatotoxicity [1]; Liver): 0; HepSE_hepatic failure (Hepatotoxicity [2]; Liver): 0; HepSE_Combined Scores (Hepatotoxicity [3]; Liver): 3; HepSE_liver fatty (Hepatotoxicity [4]; Liver): 0; HepSE_hepatomegaly (Hepatotoxicity [5]; Liver): 0; HepSE_jaundice (Hepatotoxicity [6]; Liver): 1; HepSE_hepatitis (Hepatotoxicity [7]; Liver): 1; HepSE_cholecystitis (Hepatotoxicity [8]; Liver): 0; HepSE_cholelithiasis (Hepatotoxicity [9]; Liver): 0; HepSE_liver disease (Hepatotoxicity [10]; Liver): 0; HepSE_cirrhosis (Hepatotoxicity [11]; Liver): 0; HepSE_elevated liver function tests (Hepatotoxicity [12]; Liver): 1; HepSE_bilirubinemia (Hepatotoxicity [13]; Liver): 0; HepSE_liver function tests abnormal (Hepatotoxicity [14]; Liver): 0
6 | NC(=O)CC[C@@H]1NC(=O)[C@H](Cc2ccccc2)NC(=O)[C@H](Cc2ccc(O)cc2)NC(=O)CCSSC[C@@H](C(=O)N2CCC[C@H]2C(=O)N[C@H](CCCN=C(N)N)C(=O)NCC(N)=O)NC(=O)[C@H](CC(N)=O)NC1=O [DESMOPRESSIN] | 0 | 0 | 0 | 0 | 0 | 0 | 0 | 0 | 0 | 0 | 0 | 0 | 0 | 0 | 
7 | CC1(C)O[C@@H]2C[C@H]3[C@@H]4CCC5=CC(=O)C=C[C@]5(C)[C@H]4[C@@H](O)C[C@]3(C)[C@]2(C(=O)CO)O1 [DESONIDE] | 0 | 0 | 0 | 0 | 0 | 0 | 0 | 0 | 0 | 0 | 0 | 0 | 0 | 0 | 
8 | C[C@@H]1C[C@H]2[C@@H]3CCC4=CC(=O)C=C[C@]4(C)[C@@]3(F)[C@@H](O)C[C@]2(C)[C@H]1C(=O)CO [DESOXIMETASONE] | 0 | 0 | 0 | 0 | 0 | 0 | 0 | 0 | 0 | 0 | 0 | 0 | 0 | 0 | 
